Key:
Triton treated rats = test: Cholesterol lowering in Triton treated rats; format: in vivo, Charles Foster rats; details: Rattus norvegicus, ip; 50 mg/kg i.p.; read-out: % Change S. Chol.
Text: The primary hypolipidemic effect of these compounds was established in triton induced hyperlipidemia in Charles Foster rats. […] The cholesterol lowering effect of some representative compounds of pregrenadienols and pregrenadienones as compared to clofibrate and gugulsterone in triton treated Charles Foster rats is described in Table-2.

normal rats = test: Hypolipidemic activity in normal rats; format: in vivo; details: 50 mg/kg
Method: In normal rats, 3β-hydroxypregna-5,16-dien-20one (2), at 50 mg/kg produced a significant lowering of serum cholesterol and triglycerides as describe in Table-3 below.

[1] = system: hyperlipidemic rats (high fat diet); test: Hypolipidemic activity in diet induced hyperlipidemic rats; format: in vivo; details: for LDL-Cholesterol: calculated
Method: Twenty three normal male rats average weight 110-120 g were taken for study and were divided into four groups. Group l: animals received special diet and 3β-hydroxypregna-5,16-dien-20-one (2) 50 mg/kg p.o. in 1% gum acacia. Group II: animals received 3β-hydroxypregna-5,16-dien-20-one (2), 100 mg/kg p.o. in 1% gum acacia and special diet. Group III: animals received special fat diet and 1% gum acacia and served as control. Group IV: animals were fed with stock diet and served as normal control. All animals were sacrificed at the end of 36 days. Blood was drawn from the tail at 10 days and from the aorta at the time of sacrifice for estimation of serum cholesterol, triglycerides and HDL-cholesterol. LDL-cholesterol was calculated as described. [Roschlau, P. In: Methods of Enzymatic Analysis 4th ed., H. U. Bergmeyer, Ed (Academic Press, New York) 1975 p 1890; Wahlefield, W. A. In: Methods of Enzymatic Analysis, 4th ed.; H. U. Bergmeyer, Ed. (Academic Press, New York) 1974 p 1831.]

hyperlipidemic rabbits = test: Hypolipidemic effect in hyperlipidemic rabbits (120 days experiment); format: in vivo; design: Serum Triglycerides: unit not given here; details: 100 mg/kg
glucose loaded rats = test: Hypoglycemic activity in glucose loaded rats; format: in vivo, albino rats (Charles Foster strain); details: for Blood Glucose Level: 100 mg/kg p.o. + glucose 2.0 g/kg; for % inhibition compared to control (blood glucose): 100 mg/kg
Method: The experiments were carried out with albino rats (Charles Foster strain) of either sex weighing 150-160 g. They were fed on laboratory diet prepared by M/s Lipton India Ltd. and maintained under 12 hr. light/dark cycle at 25±2° C.
The animals were divided into eight groups, each of six rats; group I was given 1% gum acacia (0.1 ml/100 g body weight) intragastrically (p.o.) and the group II were given 3β-hydroxypregna-5,16-dien-20-one (2) in 1% gum acacia. Animals of group III were given the standard antidiabetic drug, tolbutamide in the similar fashion. 2.0 g/kg glucose was given p.o. to all the rats along with the vehicle/Compound/Standard antidiabetic drug. Blood samples were taken from retroorbital plexus at periodic intervals. Glucose levels in the blood samples were measured by glucose oxidase method [Bergmeyer and Benut, 1963 cited in “Methods of Enzymatic Analysis” ed. H. Bergmeyer, Verlag Chemie, GmBH, Weinheim, Beroster, pp123, Academic press, New York].

[2] = system: streptozotocin induced diabetic rats; test: Hypoglycemic activity in streptozotocin induced hyperglycemic rats; format: in vivo; details: 100 mg/kg p.o.
Method: Hyperglycemia in rats was produced by streptozotocin treatment. The animals showing blood glucose levels between 250-350 mg/dl were selected. Blood samples were collected after treatment at intervals and blood glucose levels were estimated immediately.

[3] = system: cholesterol fed hyperlipidemic rats; test: Lipid peroxidation in cholesterol fed hyperlipidemic rats; format: in vivo
[4] = system: isoproterneol induced myocardial necrosis in rat; test: Isoproterneol induced myocardial necrosis in rats; format: in vivo; details: isoproterneol 85 mg/kg + drug 25 mg/kg p.o.
Text: The underlying cause of myocardial infarction is believed to be the progressive deposition of lipids and fibrotic material into the arterial wall. These pregnadienols and pregnadienous also provided cardiac protection as assessed in isoproterneol induced myocardial necrosis in rat model, which produces myocardial infarction due to an increased blood pressure and heart rate.

[5] = system: endometrial proliferation; test: Clauberg assay, endometrial proliferation on McPhail scale; format: in vivo; details: 200 mg/kg dose
Method: The progestational activity was also tested in vivo by Clauberg assay method. The degree of endometrial proliferation was estimated on the McPhail scale where 3′ or 4′ was considered as a full progestational effect.

## CC(=O)C1=CC[C@H]2[C@@H]3CC=C4C[C@@H](O)CC[C@]4(C)[C@H]3CC[C@]12C [Compound 2, 3β-Hydroxypregna-5,16-dien-20-one]
Triton treated rats
  change in vivo at 50 mg/kg: -46%
Normal rats; 0 Days
  Serum Cholesterol: 71.5 ± 1.8 mg %
Normal rats; 30 Days
  Serum Cholesterol: 43.2 ± 2.9 mg %
  Serum Cholesterol % Fall: 40%
  Serum Triglycerides: 42.0 ± 2.8 mg %
  Serum Triglycerides % Fall compared to control: 35%
[1]; 50 mg/kg + HFD, Day 0
  HDL-Cholesterol: 34.8 ± 5.8 mg %
  LDL-Cholesterol: 24.5 ± 14.2 mg %
[1]; 50 mg/kg + HFD, Day 36
  HDL-Cholesterol: 37.57 ± 2.8 mg %
  HDL-Cholesterol % Change: 181%
  LDL-Cholesterol: 123.87 ± 14.0 mg %
[1]; 50 mg/kg p.o. + HFD, day 0
  Serum Cholesterol: 69.1 ± 9.9 mg %
  Serum Triglycerides: 48.8 ± 7.0 mg %
[1]; 50 mg/kg p.o. + HFD, day 10
  Serum Cholesterol: 212.4 ± 23.8 mg %
  Serum Cholesterol % Decrease (compared to group III, HFD): 16%
[1]; 50 mg/kg p.o. + HFD, day 36
  Serum Cholesterol: 165 ± 26.7 mg %
  Serum Cholesterol % Decrease (compared to group III, HFD): 31%
  Serum Triglycerides: 61.5 ± 10.5 mg %
  Serum Triglycerides % Decrease (compared to group III, HFD): 55%
[1]; 100 mg/kg + HFD, Day 0
  HDL-Cholesterol: 43.4 ± 8.3 mg %
  LDL-Cholesterol: 10.02 ± 8.5 mg %
[1]; 100 mg/kg + HFD, Day 36
  HDL-Cholesterol: 47.2 ± 3.7 mg %
  HDL-Cholesterol % Change: 161%
  LDL-Cholesterol: 48.64 ± 5.1 mg %
[1]; 100 mg/kg p.o. + HFD, day 0
  Serum Cholesterol: 60.8 ± 10.3 mg %
  Serum Triglycerides: 50 ± 7.1 mg %
[1]; 100 mg/kg p.o. + HFD, day 10
  Serum Cholesterol: 145.5 ± 10.6 mg %
  Serum Cholesterol % Decrease (compared to group III, HFD): 48%
[1]; 100 mg/kg p.o. + HFD, day 36
  Serum Cholesterol: 106.4 ± 4.6 mg %
  Serum Cholesterol % Decrease (compared to group III, HFD): 59%
  Serum Triglycerides: 53.0 ± 7.5 mg %
  Serum Triglycerides % Decrease (compared to group III, HFD): 62%
Hyperlipidemic rabbits
  Serum Cholesterol % Decrease (Compared with HFD): 74%
  Serum Triglycerides % Decrease (Compared with HFD): 61%
Hyperlipidemic rabbits; HFD
  Serum Cholesterol: 350.0 ± 28.1 mg/dL
  Serum Triglycerides: 74.2 ± 10.3
Glucose loaded rats; 100 mg/kg p.o. + glucose
  Maximum Blood Glucose Change: −18.7%
Glucose loaded rats; 0 min
  Blood Glucose Level: 42.43 ± 1.64 mg/dL
Glucose loaded rats; 30 min
  Blood Glucose Level: 76.15 ± 6.07 mg/dL
  % inhibition compared to control (blood glucose): (48) %
Glucose loaded rats; 60 min
  Blood Glucose Level: 56.06 ± 4.65 mg/dL
  % inhibition compared to control (blood glucose): (55) %
Glucose loaded rats; 90 min
  Blood Glucose Level: 55.06 ± 2.61 mg/dL
  % inhibition compared to control (blood glucose): (54) %
Glucose loaded rats; 120 min
  Blood Glucose Level: 49.59 ± 1.66 mg/dL
  % inhibition compared to control (blood glucose): (34) %
[2]; 0 hr
  Blood Glucose Level: 274 ± 9 mg/dL
[2]; 1 hr
  % lowering from zero hour value (blood glucose): (11.3) %
[2]; 2 hr
  % lowering from zero hour value (blood glucose): (15.6) %
[2]; 3 hr
  % lowering from zero hour value (blood glucose): (25.9) %
[2]; 4 hr
  % lowering from zero hour value (blood glucose): (33.2) %
[2]; 5 hr
  % lowering from zero hour value (blood glucose): (42.7) %
[2]; 6 hr
  % lowering from zero hour value (blood glucose): (51.4) %
[2]; 7 hr
  % lowering from zero hour value (blood glucose): (62.7) %
[2]; 8 hr
  % lowering from zero hour value (blood glucose): (66.7) %
[2]; 24 hr
  % lowering from zero hour value (blood glucose): (52.2) %
[3]; cholesterol + drug 25 mg/kg
  HDL lipid peroxides: 125 ± 10 n mol MDA/dl
  HDL lipid peroxides % reversal as compared with cholesterol fed rats: (−9) %
  LDL lipid peroxides: 421 ± 20 n mol MDA/dl
  LDL lipid peroxides % reversal as compared with cholesterol fed rats: (−30) %
  Liver lipid peroxides: 212 ± 16 n mol MDA/g
  Liver lipid peroxides % reversal as compared with cholesterol fed rats: (−23) %
  Serum lipid peroxides: 931.5 ± 51 n mol MDA/dl
  Serum lipid peroxides % reversal as compared with cholesterol fed rats: (−24) %
  VLDL lipid peroxides: 310 ± 15 n mol MDA/dl
  VLDL lipid peroxides % reversal as compared with cholesterol fed rats: (−18) %
[3]; cholesterol fed animals, simultaneous treatment
  lipid peroxide levels in serum VLDL, LDL and liver (in words): significant reversal
[4]
  Heart Ca. - ATPase % Protection: 30.2%
  Heart Glycogen % Protection: 25.1%
  Heart Lipid peroxide % Protection: 72.6%
  Heart Phospholipase % Protection: 74.2%
  Serum Alkaline Phosphatase % Protection: 24.0%
  Serum CPK % Protection: 35.7%
  Serum GOT % Protection: 27.0%
  Serum GPT % Protection: 22.7%
[5]
  progestational activity: did not exhibit any activity

From patent publication US6875758B2, “Method of treating hyperlipidemic and hyperglycemic conditions in mammals using pregnadienols and pregnadienones” (Council of Scientific & Industrial Research, priority 1999, dated 2005)
